In article PMC4569258:
Like-named read-outs stand apart in the source and are kept apart here.

Assays:
CYP2A6 mRNA = conditions: 10 μM
CYP2A6 protein = conditions: 10 μM
Description: (§5) Total protein extracts were prepared from cells cultured on 6-well plates. Cells were washed twice with ice-cold PBS and scraped into 1 ml of PBS. The suspension was centrifuged (4500 rpm/5 min/4°C) and the pellet was resuspended in 150 μl of ice-cold lysis buffer (150 mM NaCl; 10 mM Tris pH 7.2; 0.1% (w/v) SDS; anti-protease cocktail, 1% (v/v) Triton X-100; anti-phosphatase cocktail, 1% (v/v) sodium deoxycholate; 5 mM EDTA). The mixture was vortexed and incubated for 10 min on ice and then centrifuged (15000 rpm/13 min/4°C). Supernatant was collected and the protein content was determined by the Bradford reagent.
(§6) All reagents used for running the simple western by Sally Sue ^TM were obtained from ProteinSimple (San Jose, California) and prepared according to manufacturer’s recommendations (http://www.proteinsimple.com/sally_sue.html). […] Antibody diluent, goat anti-rabbit secondary antibody, and goat anti-mouse secondary antibody were purchased from ProteinSimple. The capillaries, containing a proprietary UV-activated chemical linked reagent and 384-well plates were obtained from ProteinSimple. All samples and reagents were prepared according to the recommended ProteinSimple manual. Target proteins were identified using primary antibodies and immunoprobed using a horseradish peroxidase-conjugated secondary antibody and chemiluminescent substrate. The resulting chemiluminescent signal was detected and quantified by the Compass Software version 2.6.5.0 (ProteinSimple). For quantitative data analysis, the CYPs signals were normalized to β-actin as a loading control.

CYP2B6 mRNA = conditions: 10 μM
CYP2B6 protein = conditions: 10 μM
Description: as §5, §6

[1] = target: T1, pregnane X receptor (PXR) (Homo sapiens, UniProt O75469); conditions: for effect on rifampicin-inducible PXR transcriptional activity, in words: antagonist mode, RIF 10 μM, 24 h; for rifampicin-inducible luciferase activity, minimum of U-shaped curve: with RIF 10 μM, concentrations range 10^−8 M-10^−6 M
T1 sequence (O75469 1-434): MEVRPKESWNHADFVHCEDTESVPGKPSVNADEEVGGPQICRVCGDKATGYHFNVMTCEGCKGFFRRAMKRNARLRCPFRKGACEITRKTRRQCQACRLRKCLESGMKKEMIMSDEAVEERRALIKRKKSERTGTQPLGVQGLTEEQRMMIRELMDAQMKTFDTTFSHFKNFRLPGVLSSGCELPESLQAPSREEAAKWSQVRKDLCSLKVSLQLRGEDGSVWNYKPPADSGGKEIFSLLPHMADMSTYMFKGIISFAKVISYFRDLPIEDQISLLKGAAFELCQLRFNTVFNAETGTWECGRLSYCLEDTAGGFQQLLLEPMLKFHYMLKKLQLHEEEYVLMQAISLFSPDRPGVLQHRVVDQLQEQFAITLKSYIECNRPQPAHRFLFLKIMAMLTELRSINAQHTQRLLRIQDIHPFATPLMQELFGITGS

[2] = target: T2, aryl hydrocarbon receptor (AhR) (Homo sapiens, UniProt P35869); test: AhR gene reporter assay in AZ-AHR cells; conditions: for IC50: AhR antagonist IC50, antagonist mode, in presence of TCDD 5 nM; for IC50 / effect on AhR-dependent luciferase activity (agonist mode), in words: 24 h
T2 sequence (P35869 11-848): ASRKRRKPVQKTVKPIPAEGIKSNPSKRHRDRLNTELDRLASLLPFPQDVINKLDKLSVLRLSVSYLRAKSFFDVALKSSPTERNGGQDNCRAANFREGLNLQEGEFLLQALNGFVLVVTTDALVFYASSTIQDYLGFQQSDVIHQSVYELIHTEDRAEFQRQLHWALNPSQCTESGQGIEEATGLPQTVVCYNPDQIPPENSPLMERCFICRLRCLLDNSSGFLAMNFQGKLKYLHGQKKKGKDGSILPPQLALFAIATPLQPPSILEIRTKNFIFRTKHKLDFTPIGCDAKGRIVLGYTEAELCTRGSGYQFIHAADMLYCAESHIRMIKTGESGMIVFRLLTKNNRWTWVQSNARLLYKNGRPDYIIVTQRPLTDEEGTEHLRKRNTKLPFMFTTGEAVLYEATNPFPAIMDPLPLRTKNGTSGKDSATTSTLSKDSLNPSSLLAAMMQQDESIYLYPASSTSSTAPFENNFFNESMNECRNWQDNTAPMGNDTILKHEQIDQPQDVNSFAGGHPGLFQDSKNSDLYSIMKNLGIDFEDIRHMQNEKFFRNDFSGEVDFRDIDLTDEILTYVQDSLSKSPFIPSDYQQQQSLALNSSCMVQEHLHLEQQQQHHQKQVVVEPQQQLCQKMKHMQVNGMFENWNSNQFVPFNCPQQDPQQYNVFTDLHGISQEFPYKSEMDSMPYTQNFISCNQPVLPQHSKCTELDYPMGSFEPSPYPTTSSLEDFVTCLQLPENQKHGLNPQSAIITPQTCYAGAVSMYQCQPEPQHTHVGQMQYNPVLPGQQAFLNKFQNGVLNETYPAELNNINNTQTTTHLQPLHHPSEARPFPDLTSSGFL
Description: (§7) A stably transfected gene reporter cell line AZ-AHR, derived from human hepatoma HepG2 cells transfected with a construct containing several AhR binding sites upstream of a luciferase reporter gene, was used for assessment of AhR transcriptional activity [20].
(§8) Transcriptional activity of AhR was assessed in human gene reporter cell line AZ-AHR incubated for 24 h with tested compounds.
(§9) AZ-AHR cells were seeded in 96-well plates and stabilized for 16 h and then incubated for 24 h with enantiopure forms of atorvastatin, rosuvastatin and fluvastatin in concentration ranging from 10^−10 M to 10^−4 M in the absence (agonist mode–upper panels) or presence (antagonist mode–lower panels) of dioxin (TCDD; 5 nM). The vehicle was DMSO (0.1% v/v). After the treatments, cells were lysed and luciferase activity was measured. Treatments were performed in triplicates. Data are expressed as a fold induction of luciferase activity over control cells (agonist mode) or as a percentage of maximal activation attained by TCDD (antagonist mode). The values of EC50 and IC50 from n independent cell passages were calculated where appropriate and the average values are indicated in plots. Representative gene reporter assays are shown.

[3] = target: T3, glucocorticoid receptor (GR) (Homo sapiens, UniProt P04150); test: GR gene reporter assay in AZ-GR cells; type: cell-based; conditions: for IC50: in presence of DEX 100 nM
T3 sequence (P04150 1-777): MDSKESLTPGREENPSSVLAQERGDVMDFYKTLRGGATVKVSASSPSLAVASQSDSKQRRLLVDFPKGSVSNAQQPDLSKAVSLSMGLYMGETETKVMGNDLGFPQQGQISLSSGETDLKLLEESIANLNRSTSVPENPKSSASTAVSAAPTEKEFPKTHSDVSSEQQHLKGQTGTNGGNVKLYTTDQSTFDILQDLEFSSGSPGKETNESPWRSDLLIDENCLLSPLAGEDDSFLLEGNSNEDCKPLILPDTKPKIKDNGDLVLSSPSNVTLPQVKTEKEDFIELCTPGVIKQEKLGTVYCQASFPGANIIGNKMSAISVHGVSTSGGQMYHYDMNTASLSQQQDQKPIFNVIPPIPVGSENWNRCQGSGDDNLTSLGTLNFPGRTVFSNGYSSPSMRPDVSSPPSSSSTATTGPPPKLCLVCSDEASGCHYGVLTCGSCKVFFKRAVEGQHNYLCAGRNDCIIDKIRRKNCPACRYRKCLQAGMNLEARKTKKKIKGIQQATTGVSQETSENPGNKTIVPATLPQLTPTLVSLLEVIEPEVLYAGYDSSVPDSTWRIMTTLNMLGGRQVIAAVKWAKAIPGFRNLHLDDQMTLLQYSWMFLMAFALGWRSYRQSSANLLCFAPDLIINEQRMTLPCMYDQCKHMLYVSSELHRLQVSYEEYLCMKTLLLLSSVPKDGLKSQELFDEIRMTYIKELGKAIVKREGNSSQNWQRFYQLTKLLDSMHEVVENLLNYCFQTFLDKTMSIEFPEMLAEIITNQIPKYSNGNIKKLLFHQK
Description: Transcriptional activity of GR was assessed in human gene reporter cell line AZ-GR incubated for 24 h with tested compounds. […] The vehicle was DMSO (0.1% v/v). […] Treatments were performed in triplicates.

[4] = target: T2, aryl hydrocarbon receptor (AhR); test: cell-based
Description: as §7, §8, §9

CYP3A4 protein = conditions: HH59, HH61, HH63; 48 h
Description: as §5
All reagents used for running the simple western by Sally Sue ^TM were obtained from ProteinSimple (San Jose, California) and prepared according to manufacturer’s recommendations (http://www.proteinsimple.com/sally_sue.html). […] Antibody diluent, goat anti-rabbit secondary antibody, and goat anti-mouse secondary antibody were purchased from ProteinSimple. The capillaries, containing a proprietary UV-activated chemical linked reagent and 384-well plates were obtained from ProteinSimple. […] The resulting chemiluminescent signal was detected and quantified by the Compass Software version 2.6.5.0 (ProteinSimple). For quantitative data analysis, the CYPs signals were normalized to β-actin as a loading control.

CYP1A2 protein = CYP1A2 protein (Simple Western) in primary human hepatocytes; type: cell-based; conditions: 5 nM
Description: (§1) Cells were cultured in serum-free medium.

CYP1A1 protein = CYP1A1 protein (Simple Western) in primary human hepatocytes; type: cell-based; conditions: 5 nM
Description: as §1

CYP1A1 mRNA = CYP1A1 mRNA (qRT-PCR) in primary human hepatocytes; type: cell-based; conditions: 5 nM
Description: as §1
(§2) Measurements were performed in triplicates.

CYP1A2 mRNA = CYP1A2 mRNA (qRT-PCR) in primary human hepatocytes; type: cell-based; conditions: 5 nM
Description: as §1, §2

[5] = MTT cytotoxicity test in AZ-AHR cells; type: cell-based; conditions: human
Description: (§3) Prior to gene reporter assays, we examined the cytotoxicity of tested compounds in AZ-AHR, AZ-GR and LS180 cell lines. For this purpose, the cells were incubated for 24 h with individual enantiomers of atorvastatin, fluvastatin and rosuvastatin at concentrations ranging from 100 pM to 100 μM. The vehicle was DMSO (0.1% v/v). After the treatment, a conventional MTT test was performed and the values of IC50 were calculated.
(§4) Fig 2 Cytotoxicity of statin enantiomers in human cancer cell lines. […] After the treatment, a conventional MTT test was performed and absorbance was measured at 540 nm. Treatments were performed in triplicates.

[6] = MTT cytotoxicity test in LS180 cells; type: cell-based; conditions: human, LS180 colon adenocarcinoma cells
Description: as §3, §4

[7] = MTT cytotoxicity test in AZ-GR cells; type: cell-based; conditions: human, AZ-GR cells (HeLa-derived GR luciferase reporter cell line)
Description: as §3, §4

CO[C@H]1/C=C/O[C@@]2(C)Oc3c(C)c(O)c4c(O)c(c(/C=N/N5CCN(C)CC5)c(O)c4c3C2=O)NC(=O)/C(C)=C\C=C\[C@H](C)[C@H](O)[C@@H](C)[C@@H](O)[C@@H](C)[C@H](OC(C)=O)[C@@H]1C [rifampicin]
induction of CYP2A6 mRNA (CYP2A6 mRNA; culture HH59, 24 h): 2.4 fold
induction of CYP2A6 mRNA (CYP2A6 mRNA; culture HH61, 24 h): 5.2 fold
induction of CYP2A6 mRNA (CYP2A6 mRNA; culture HH63, 24 h): 7.1 fold
induction of CYP2A6 protein (CYP2A6 protein; culture HH59, 48 h): 4.8 fold
induction of CYP2A6 protein (CYP2A6 protein; culture HH61, 48 h): 7.3 fold
induction of CYP2A6 protein (CYP2A6 protein; culture HH63, 48 h): 2.3 fold
induction of CYP2B6 mRNA (CYP2B6 mRNA; culture HH59, 24 h): 5.8 fold
induction of CYP2B6 mRNA (CYP2B6 mRNA; culture HH61, 24 h): 16 fold
induction of CYP2B6 mRNA (CYP2B6 mRNA; culture HH63, 24 h): 6.9 fold
induction of CYP2B6 protein (CYP2B6 protein; culture HH59, 48 h): 8.4 fold
induction of CYP2B6 protein (CYP2B6 protein; culture HH61, 48 h): 5.9 fold
induction of CYP2B6 protein (CYP2B6 protein; culture HH63, 48 h): 7.7 fold

CC(C)c1nc(N(C)S(C)(=O)=O)nc(-c2ccc(F)cc2)c1C=CC(O)CC(O)CC(=O)O (stereo not shown) [3S5R-rosuvastatin, 3S5R- rosuvastatin]
effect on rifampicin-inducible PXR transcriptional activity, in words [1]: not influenced
IC50 [2]: > 100 µM
IC50 ([3]; antagonist mode, 24 h): > 100 µM
EC50 [4]: > 100 µM
induction of CYP3A4 protein, in words (CYP3A4 protein): significant induction of CYP3A4 protein

CC(C)c1c(C(=O)Nc2ccccc2)c(-c2ccccc2)c(-c2ccc(F)cc2)n1CC[C@@H](O)C[C@@H](O)CC(=O)O [3R5R-atorvastatin]
effect on dexamethasone-inducible transcriptional activity of GR, in words ([3]; antagonist mode, DEX 100 nM, 24 h): decreased

Clc1cc2c(cc1Cl)Oc1cc(Cl)c(Cl)cc1O2 [TCDD, 2,3,7,8-tetrachlorodibenzo-p-dioxin]
induction of CYP1A2 protein (CYP1A2 protein; culture HH59, 48 h): 19 fold
induction of CYP1A2 protein (CYP1A2 protein; culture HH61, 48 h): 83 fold
induction of CYP1A2 protein (CYP1A2 protein; culture HH63, 48 h): 50 fold
average induction of AhR-dependent luciferase activity ([2]; 5 nM, eight consecutive passages, vs DMSO-treated cells): 1107 fold
induction of CYP1A1 protein (CYP1A1 protein; culture HH59, 48 h): 35 fold
induction of CYP1A1 protein (CYP1A1 protein; culture HH61, 48 h): 220 fold
induction of CYP1A1 protein (CYP1A1 protein; culture HH63, 48 h): 35 fold
induction of CYP1A1 mRNA (CYP1A1 mRNA; culture HH59, 24 h): 98 fold
induction of CYP1A1 mRNA (CYP1A1 mRNA; culture HH61, 24 h): 339 fold
induction of CYP1A1 mRNA (CYP1A1 mRNA; culture HH63, 24 h): 278 fold
induction of CYP1A2 mRNA (CYP1A2 mRNA; culture HH59, 24 h): 110 fold
induction of CYP1A2 mRNA (CYP1A2 mRNA; culture HH61, 24 h): 143 fold
induction of CYP1A2 mRNA (CYP1A2 mRNA; culture HH63, 24 h): 45 fold

CC(C)c1nc(N(C)S(C)(=O)=O)nc(-c2ccc(F)cc2)c1C=CC(O)CC(O)CC(=O)O (stereo not shown) [3S5S-rosuvastatin]
effect on rifampicin-inducible PXR transcriptional activity, in words [1]: U-shaped curve
rifampicin-inducible luciferase activity, minimum of U-shaped curve [1]: 60 % of rifampicin value
IC50 [2]: > 100 µM
efficacy of AhR activation, % of induction attained by TCDD ([2]; agonist mode): about 0.1%
effect on AhR-dependent luciferase activity (agonist mode), in words ([2]; agonist mode): dose-dependently increased luciferase activity
IC50 ([3]; antagonist mode, 24 h): > 100 µM
EC50 [4]: 17.5 ± 0.4 µM

CC(C)c1nc(N(C)S(C)(=O)=O)nc(-c2ccc(F)cc2)c1C=CC(O)CC(O)CC(=O)O (stereo not shown) [3R5R-rosuvastatin, 3R5R- rosuvastatin]
effect on rifampicin-inducible PXR transcriptional activity, in words [1]: U-shaped curve
rifampicin-inducible luciferase activity, minimum of U-shaped curve [1]: 60 % of rifampicin value
IC50 [2]: > 100 µM
IC50 at 24 h [5]: > 100 µM
EC50 ([3]; agonist mode, 24 h): > 100 µM
IC50 ([3]; antagonist mode, 24 h): > 100 µM
EC50 [4]: > 100 µM
IC50 at 24 h [6]: > 100 µM
IC50 at 24 h [7]: > 100 µM

CC(C)n1c(C=CC(O)CC(O)CC(=O)O)c(-c2ccc(F)cc2)c2ccccc21 (stereo not shown) [3S5S-fluvastatin]
efficacy: average induction of PXR luciferase activity ([1]; 100 μM concentration, agonist mode): around 3 fold
IC50 [2]: > 100 µM
effect on AhR-dependent luciferase activity (agonist mode), in words ([2]; agonist mode): slightly increased luciferase activity
IC50 at 24 h [5]: > 100 µM
EC50 [4]: 14.7 ± 0.9 µM
IC50 at 24 h [6]: > 100 µM
IC50 at 24 h [7]: > 100 µM

C[C@@H]1C[C@H]2[C@@H]3CCC4=CC(=O)C=C[C@]4(C)[C@@]3(F)[C@@H](O)C[C@]2(C)[C@@]1(O)C(=O)CO [dexamethasone]
average induction of GR-dependent luciferase activity ([3]; 100 nM, eight consecutive passages, vs DMSO-treated cells): 32 fold
